The values below are quoted from earlier work in US7994209B2, “3-phenoxymethylpyrrolidine compounds” (Theravance, Inc., priority 2009, dated 2011).

The test system of this data set is SERT and NET. The note with it: cited from earlier work.

Take `CNCC[C@@H](Oc1ccccc1C)c1ccccc1` [Atomoxetine]: the NET selective (NET selectivity) is listed as 10 fold.

With `CCN(CC)C(=O)C1(c2ccccc2)CC1CN` (stereo not shown) [milnacipran], the “selectivity (measured as pKi) for SERT over NET” value is reported as 2.5 fold.

As for `CNCC[C@H](Oc1cccc2ccccc12)c1cccs1` [duloxetine], the “selectivity (measured as pKi) for SERT over NET” value is listed as 10 fold. Besides, the “affinity for SERT relative to NET” value (Vaishnavi et al. (2004)) is listed as “higher affinity for SERT relative to NET”.
